From PubChem BioAssay (NCI)
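Cultured in 96-well plates, cells were exposed to test compound for 48 hours across five concentrations. Definition used: TGI = concentration required for complete inhibition of growth.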

Experiments:
Test in all cases: inhibition of tumour cell growth, NCI panel, 48 h
MDA-N = system: MDA-N
HL-60(TB) leukemia = system: HL-60(TB) leukemia
CAKI-1 renal = system: CAKI-1 renal
A498 renal = system: A498 renal
EKVX NSCLC = system: EKVX NSCLC
T-47D breast = system: T-47D breast
UACC-257 melanoma = system: UACC-257 melanoma
K-562 leukemia = system: K-562 leukemia
SK-OV-3 ovarian = system: SK-OV-3 ovarian
LOX IMVI melanoma = system: LOX IMVI melanoma
UACC-62 melanoma = system: UACC-62 melanoma
OVCAR-5 ovarian = system: OVCAR-5 ovarian
SF-539 CNS = system: SF-539 CNS
TK-10 renal = system: TK-10 renal
UO-31 renal = system: UO-31 renal
CCRF-CEM leukemia = system: CCRF-CEM leukemia
MCF7 breast = system: MCF7 breast
NCI/ADR-RES ovarian = system: NCI/ADR-RES ovarian
KM12 colon = system: KM12 colon
IGROV1 ovarian = system: IGROV1 ovarian
HT29 colon = system: HT29 colon
MDA-MB-231 breast = system: MDA-MB-231 breast
SW-620 colon = system: SW-620 colon
A549 NSCLC = system: A549 NSCLC
SNB-75 CNS = system: SNB-75 CNS
OVCAR-8 ovarian = system: OVCAR-8 ovarian
OVCAR-4 ovarian = system: OVCAR-4 ovarian
NCI-H226 lung = system: NCI-H226 lung
HCC-2998 colon = system: HCC-2998 colon
M14 melanoma = system: M14 melanoma
NCI-H23 lung = system: NCI-H23 lung
SK-MEL-2 melanoma = system: SK-MEL-2 melanoma
COLO 205 colon = system: COLO 205 colon
HCT-15 colon = system: HCT-15 colon
SN12C renal = system: SN12C renal
SK-MEL-28 melanoma = system: SK-MEL-28 melanoma
SF-295 CNS = system: SF-295 CNS
ACHN renal = system: ACHN renal
SF-268 CNS = system: SF-268 CNS
SK-MEL-5 melanoma = system: SK-MEL-5 melanoma
OVCAR-3 ovarian = system: OVCAR-3 ovarian
HOP-92 NSCLC = system: HOP-92 NSCLC
NCI-H522 lung = system: NCI-H522 lung
DU-145 prostate = system: DU-145 prostate
BT-549 breast = system: BT-549 breast
PC-3 prostate = system: PC-3 prostate
U251 CNS = system: U251 CNS
SR leukemia = system: SR leukemia
MALME-3M melanoma = system: MALME-3M melanoma
HCT-116 colon = system: HCT-116 colon
NCI-H460 lung = system: NCI-H460 lung
HOP-62 NSCLC = system: HOP-62 NSCLC
RXF 393 renal = system: RXF 393 renal
SNB-19 CNS = system: SNB-19 CNS
786-0 renal = system: 786-0 renal
HS 578T breast = system: HS 578T breast
MOLT-4 leukemia = system: MOLT-4 leukemia
MDA-MB-435 = system: MDA-MB-435
RPMI-8226 leukemia = system: RPMI-8226 leukemia

CC1=C[C@@H]2[C@@H](CC(CO)=C[C@H]3[C@@H]4C(C)(C)[C@]4(OCC(C)C)[C@H](OCC(C)C)[C@@H](C)[C@]23O)C1=O
TGI (MDA-N): 3.49 µM
TGI (HL-60(TB) leukemia): > 5.52 µM
TGI (CAKI-1 renal): 3.69 µM
TGI (A498 renal): > 4.44 µM
TGI (EKVX NSCLC): > 5.64 µM
TGI (T-47D breast): > 8.32 µM
TGI (UACC-257 melanoma): 3.72 µM
TGI (K-562 leukemia): > 4.86 µM
TGI (SK-OV-3 ovarian): > 8.32 µM
TGI (LOX IMVI melanoma): 3.06 µM
TGI (UACC-62 melanoma): 3.2 µM
TGI (OVCAR-5 ovarian): 8.23 µM
TGI (SF-539 CNS): 2.87 µM
TGI (TK-10 renal): > 5.97 µM
TGI (UO-31 renal): > 6.8 µM
TGI (CCRF-CEM leukemia): 8.12 µM
TGI (MCF7 breast): 6.89 µM
TGI (NCI/ADR-RES ovarian): 8.31 µM
TGI (KM12 colon): > 5.69 µM
TGI (IGROV1 ovarian): 4.8 µM
TGI (HT29 colon): 2.87 µM
TGI (MDA-MB-231 breast): 3.39 µM
TGI (SW-620 colon): 4.68 µM
TGI (A549 NSCLC): > 8.32 µM
TGI (SNB-75 CNS): > 8.32 µM
TGI (OVCAR-8 ovarian): > 6.08 µM
TGI (OVCAR-4 ovarian): > 8.32 µM
TGI (NCI-H226 lung): > 4.53 µM
TGI (HCC-2998 colon): 1.78 µM
TGI (M14 melanoma): > 5.15 µM
TGI (NCI-H23 lung): 5.81 µM
TGI (SK-MEL-2 melanoma): > 6.43 µM
TGI (COLO 205 colon): 1.4 µM
TGI (HCT-15 colon): 2.77 µM
TGI (SN12C renal): 4.22 µM
TGI (SK-MEL-28 melanoma): 3.38 µM
TGI (SF-295 CNS): > 8.32 µM
TGI (ACHN renal): 3.4 µM
TGI (SF-268 CNS): > 8.32 µM
TGI (SK-MEL-5 melanoma): > 4.37 µM
TGI (OVCAR-3 ovarian): 5.46 µM
TGI (HOP-92 NSCLC): > 5.57 µM
TGI (NCI-H522 lung): 4.58 µM
TGI (DU-145 prostate): > 8.32 µM
TGI (BT-549 breast): 2.65 µM
TGI (PC-3 prostate): > 4.51 µM
TGI (U251 CNS): 4.15 µM
TGI (SR leukemia): 3.32 µM
TGI (MALME-3M melanoma): 2.36 µM
TGI (HCT-116 colon): > 4.72 µM
TGI (NCI-H460 lung): > 8.32 µM
TGI (HOP-62 NSCLC): 2.8 µM
TGI (RXF 393 renal): 3.69 µM
TGI (SNB-19 CNS): > 8.32 µM
TGI (786-0 renal): > 6.54 µM
TGI (HS 578T breast): 2.71 µM
TGI (MOLT-4 leukemia): 2.96 µM
TGI (MDA-MB-435): > 6.31 µM

O=S(=O)(O)C(Cc1nc2ccccc2[nH]1)S(=O)(=O)OCCC1S(=O)(=O)OCCOS1(=O)=O (stereo unspecified)
TGI (MDA-N): > 100 µM
TGI (HL-60(TB) leukemia): > 100 µM
TGI (CAKI-1 renal): > 100 µM
TGI (A498 renal): > 100 µM
TGI (EKVX NSCLC): > 100 µM
TGI (T-47D breast): > 100 µM
TGI (UACC-257 melanoma): > 100 µM
TGI (RPMI-8226 leukemia): > 100 µM
TGI (K-562 leukemia): > 100 µM
TGI (SK-OV-3 ovarian): > 100 µM
TGI (LOX IMVI melanoma): > 100 µM
TGI (UACC-62 melanoma): > 100 µM
TGI (OVCAR-5 ovarian): > 100 µM
TGI (SF-539 CNS): > 100 µM
TGI (TK-10 renal): > 100 µM
TGI (UO-31 renal): > 100 µM
TGI (CCRF-CEM leukemia): > 100 µM
TGI (MCF7 breast): > 100 µM
TGI (NCI/ADR-RES ovarian): > 100 µM
TGI (KM12 colon): > 100 µM
TGI (IGROV1 ovarian): > 100 µM
TGI (HT29 colon): > 100 µM
TGI (MDA-MB-231 breast): > 100 µM
TGI (SW-620 colon): > 100 µM
TGI (A549 NSCLC): > 100 µM
TGI (SNB-75 CNS): > 100 µM
TGI (OVCAR-8 ovarian): > 100 µM
TGI (OVCAR-4 ovarian): > 100 µM
TGI (NCI-H226 lung): > 100 µM
TGI (HCC-2998 colon): > 100 µM
TGI (M14 melanoma): > 100 µM
TGI (NCI-H23 lung): > 100 µM
TGI (SK-MEL-2 melanoma): > 100 µM
TGI (COLO 205 colon): > 100 µM
TGI (HCT-15 colon): > 100 µM
TGI (SN12C renal): > 100 µM
TGI (SK-MEL-28 melanoma): > 100 µM
TGI (SF-295 CNS): > 100 µM
TGI (ACHN renal): > 100 µM
TGI (SF-268 CNS): > 100 µM
TGI (SK-MEL-5 melanoma): > 100 µM
TGI (OVCAR-3 ovarian): > 100 µM
TGI (HOP-92 NSCLC): > 100 µM
TGI (NCI-H522 lung): > 100 µM
TGI (DU-145 prostate): > 100 µM
TGI (BT-549 breast): > 100 µM
TGI (PC-3 prostate): > 100 µM
TGI (U251 CNS): > 100 µM
TGI (MALME-3M melanoma): > 100 µM
TGI (HCT-116 colon): > 100 µM
TGI (NCI-H460 lung): > 100 µM
TGI (HOP-62 NSCLC): > 100 µM
TGI (RXF 393 renal): > 100 µM
TGI (SNB-19 CNS): > 100 µM
TGI (786-0 renal): > 100 µM
TGI (HS 578T breast): > 100 µM
TGI (MOLT-4 leukemia): > 100 µM
TGI (MDA-MB-435): > 100 µM
